According to ChEMBL document CHEMBL1201862, “PubChem BioAssay data set” (2004):
Each block holds one compound with its values, some of them ahead of it. Activity calls are given as the source filed them.

Tests used:
[1] = test system: HEK293; assay: cells; format: functional, cell-based; settings: Homo sapiens
[2] = test system: HEK293; assay: NOD2 signaling inhibitors in MDP-stimulated cells, cell-based, uHTS, luminescence (AID 2001); format: functional; settings: Homo sapiens
[3] = test system: Streptococcus; assay: Group A Streptococcus viability loss, dose response, counter-screen for streptokinase expression inhibitor project, luminescence, BacTiterGlo (AID 1915); format: functional, organism-based;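 further: potency for reduction of bacterial viability or growth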
[4] = target: Hexokinase-1 (Homo sapiens, UniProt P19367); assay: hexokinase 1 activators, dose response, selectivity assay for HKDC1 activator project, biochemical (AID 504762); format: functional
[5] = target: T1, Lysine-specific demethylase 4C (Homo sapiens, UniProt Q9H3R0); assay: GASC-1 (JMJD2C) histone demethylase inhibitors, dose response, biochemical, DELFIA europium, cherry-picked samples (AID 488835); format: functional
T1 sequence (Q9H3R0 whole entry): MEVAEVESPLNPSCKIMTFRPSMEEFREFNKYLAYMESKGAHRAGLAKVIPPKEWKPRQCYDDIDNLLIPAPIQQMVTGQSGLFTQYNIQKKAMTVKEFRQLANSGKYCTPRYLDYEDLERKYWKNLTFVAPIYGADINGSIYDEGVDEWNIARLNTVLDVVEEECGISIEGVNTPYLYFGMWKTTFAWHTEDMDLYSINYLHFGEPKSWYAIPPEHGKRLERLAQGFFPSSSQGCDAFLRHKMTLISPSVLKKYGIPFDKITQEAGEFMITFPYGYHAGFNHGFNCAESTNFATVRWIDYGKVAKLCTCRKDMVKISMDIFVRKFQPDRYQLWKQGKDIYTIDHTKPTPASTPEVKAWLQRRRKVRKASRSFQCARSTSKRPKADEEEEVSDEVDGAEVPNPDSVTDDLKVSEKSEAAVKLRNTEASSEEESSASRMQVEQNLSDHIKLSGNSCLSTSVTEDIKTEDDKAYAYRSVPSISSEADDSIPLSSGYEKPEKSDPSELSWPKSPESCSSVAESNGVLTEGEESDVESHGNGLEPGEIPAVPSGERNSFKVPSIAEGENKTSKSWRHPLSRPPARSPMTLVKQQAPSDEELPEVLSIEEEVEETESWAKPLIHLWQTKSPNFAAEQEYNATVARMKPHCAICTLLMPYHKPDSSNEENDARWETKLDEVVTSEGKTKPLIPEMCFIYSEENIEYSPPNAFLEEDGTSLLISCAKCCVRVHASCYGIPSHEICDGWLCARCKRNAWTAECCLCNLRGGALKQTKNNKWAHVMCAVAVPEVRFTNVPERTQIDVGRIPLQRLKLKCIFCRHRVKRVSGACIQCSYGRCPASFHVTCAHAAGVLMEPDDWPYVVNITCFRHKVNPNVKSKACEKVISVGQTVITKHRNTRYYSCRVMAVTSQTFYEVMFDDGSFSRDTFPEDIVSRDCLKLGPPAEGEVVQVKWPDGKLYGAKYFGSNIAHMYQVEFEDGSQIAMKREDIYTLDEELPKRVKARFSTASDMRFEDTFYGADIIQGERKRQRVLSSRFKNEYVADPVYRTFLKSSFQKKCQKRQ

[6] = target: T2, RNA-binding protein pos-1 (Caenorhabditis elegans, UniProt G5EF15); assay: inhibitors of POS-1/mex-3 RNA binding, dose response, biochemical, fluorescence polarization (AID 1964);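 further: purified POS-1 fused to maltose binding protein made in E. coli; potency of compounds blocking POS-1 binding to fluorescent RNA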
T2 sequence (G5EF15 whole entry): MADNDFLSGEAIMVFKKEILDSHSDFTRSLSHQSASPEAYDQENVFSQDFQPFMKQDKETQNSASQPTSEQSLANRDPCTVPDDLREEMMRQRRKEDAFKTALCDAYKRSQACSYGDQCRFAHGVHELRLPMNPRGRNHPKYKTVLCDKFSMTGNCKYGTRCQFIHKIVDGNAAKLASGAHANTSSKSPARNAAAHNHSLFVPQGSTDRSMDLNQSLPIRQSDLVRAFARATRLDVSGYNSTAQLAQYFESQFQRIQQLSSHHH

[7] = target: T3, Tyrosyl-DNA phosphodiesterase 2 (Homo sapiens, UniProt O95551); assay: human TDP2 enzyme inhibitors, dose response, biochemical, epi absorbance, IC50 (AID 743297)
T3 sequence (O95551 whole entry): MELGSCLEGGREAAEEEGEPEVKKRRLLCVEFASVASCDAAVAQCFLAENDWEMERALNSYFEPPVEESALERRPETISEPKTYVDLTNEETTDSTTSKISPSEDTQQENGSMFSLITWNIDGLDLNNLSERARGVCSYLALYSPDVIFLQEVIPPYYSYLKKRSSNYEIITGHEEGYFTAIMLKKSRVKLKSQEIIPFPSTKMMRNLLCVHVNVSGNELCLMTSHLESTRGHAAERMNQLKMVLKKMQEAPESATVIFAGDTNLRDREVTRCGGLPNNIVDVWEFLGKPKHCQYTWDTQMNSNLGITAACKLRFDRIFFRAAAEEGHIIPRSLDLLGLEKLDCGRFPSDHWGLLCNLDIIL

[8] = target: NS3 (Hepatitis C virus, UniProt A3EZJ3); assay: PubChem AID 2173; set-up: species or system Hepacivirus hominis
[9] = target: Fatty acid synthase (Homo sapiens, UniProt P49327); assay: FAS thioesterase domain inhibitors, dose response, biochemical, endpoint fluorescence intensity, uHTS hits (AID 624327); format: functional;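 further: fluorescence from hydrolysis of an O-methyl fluorescein acyl ester substrate by the enzyme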
Sequence of Fatty acid synthase (P49327 whole entry, the tested form may be a part): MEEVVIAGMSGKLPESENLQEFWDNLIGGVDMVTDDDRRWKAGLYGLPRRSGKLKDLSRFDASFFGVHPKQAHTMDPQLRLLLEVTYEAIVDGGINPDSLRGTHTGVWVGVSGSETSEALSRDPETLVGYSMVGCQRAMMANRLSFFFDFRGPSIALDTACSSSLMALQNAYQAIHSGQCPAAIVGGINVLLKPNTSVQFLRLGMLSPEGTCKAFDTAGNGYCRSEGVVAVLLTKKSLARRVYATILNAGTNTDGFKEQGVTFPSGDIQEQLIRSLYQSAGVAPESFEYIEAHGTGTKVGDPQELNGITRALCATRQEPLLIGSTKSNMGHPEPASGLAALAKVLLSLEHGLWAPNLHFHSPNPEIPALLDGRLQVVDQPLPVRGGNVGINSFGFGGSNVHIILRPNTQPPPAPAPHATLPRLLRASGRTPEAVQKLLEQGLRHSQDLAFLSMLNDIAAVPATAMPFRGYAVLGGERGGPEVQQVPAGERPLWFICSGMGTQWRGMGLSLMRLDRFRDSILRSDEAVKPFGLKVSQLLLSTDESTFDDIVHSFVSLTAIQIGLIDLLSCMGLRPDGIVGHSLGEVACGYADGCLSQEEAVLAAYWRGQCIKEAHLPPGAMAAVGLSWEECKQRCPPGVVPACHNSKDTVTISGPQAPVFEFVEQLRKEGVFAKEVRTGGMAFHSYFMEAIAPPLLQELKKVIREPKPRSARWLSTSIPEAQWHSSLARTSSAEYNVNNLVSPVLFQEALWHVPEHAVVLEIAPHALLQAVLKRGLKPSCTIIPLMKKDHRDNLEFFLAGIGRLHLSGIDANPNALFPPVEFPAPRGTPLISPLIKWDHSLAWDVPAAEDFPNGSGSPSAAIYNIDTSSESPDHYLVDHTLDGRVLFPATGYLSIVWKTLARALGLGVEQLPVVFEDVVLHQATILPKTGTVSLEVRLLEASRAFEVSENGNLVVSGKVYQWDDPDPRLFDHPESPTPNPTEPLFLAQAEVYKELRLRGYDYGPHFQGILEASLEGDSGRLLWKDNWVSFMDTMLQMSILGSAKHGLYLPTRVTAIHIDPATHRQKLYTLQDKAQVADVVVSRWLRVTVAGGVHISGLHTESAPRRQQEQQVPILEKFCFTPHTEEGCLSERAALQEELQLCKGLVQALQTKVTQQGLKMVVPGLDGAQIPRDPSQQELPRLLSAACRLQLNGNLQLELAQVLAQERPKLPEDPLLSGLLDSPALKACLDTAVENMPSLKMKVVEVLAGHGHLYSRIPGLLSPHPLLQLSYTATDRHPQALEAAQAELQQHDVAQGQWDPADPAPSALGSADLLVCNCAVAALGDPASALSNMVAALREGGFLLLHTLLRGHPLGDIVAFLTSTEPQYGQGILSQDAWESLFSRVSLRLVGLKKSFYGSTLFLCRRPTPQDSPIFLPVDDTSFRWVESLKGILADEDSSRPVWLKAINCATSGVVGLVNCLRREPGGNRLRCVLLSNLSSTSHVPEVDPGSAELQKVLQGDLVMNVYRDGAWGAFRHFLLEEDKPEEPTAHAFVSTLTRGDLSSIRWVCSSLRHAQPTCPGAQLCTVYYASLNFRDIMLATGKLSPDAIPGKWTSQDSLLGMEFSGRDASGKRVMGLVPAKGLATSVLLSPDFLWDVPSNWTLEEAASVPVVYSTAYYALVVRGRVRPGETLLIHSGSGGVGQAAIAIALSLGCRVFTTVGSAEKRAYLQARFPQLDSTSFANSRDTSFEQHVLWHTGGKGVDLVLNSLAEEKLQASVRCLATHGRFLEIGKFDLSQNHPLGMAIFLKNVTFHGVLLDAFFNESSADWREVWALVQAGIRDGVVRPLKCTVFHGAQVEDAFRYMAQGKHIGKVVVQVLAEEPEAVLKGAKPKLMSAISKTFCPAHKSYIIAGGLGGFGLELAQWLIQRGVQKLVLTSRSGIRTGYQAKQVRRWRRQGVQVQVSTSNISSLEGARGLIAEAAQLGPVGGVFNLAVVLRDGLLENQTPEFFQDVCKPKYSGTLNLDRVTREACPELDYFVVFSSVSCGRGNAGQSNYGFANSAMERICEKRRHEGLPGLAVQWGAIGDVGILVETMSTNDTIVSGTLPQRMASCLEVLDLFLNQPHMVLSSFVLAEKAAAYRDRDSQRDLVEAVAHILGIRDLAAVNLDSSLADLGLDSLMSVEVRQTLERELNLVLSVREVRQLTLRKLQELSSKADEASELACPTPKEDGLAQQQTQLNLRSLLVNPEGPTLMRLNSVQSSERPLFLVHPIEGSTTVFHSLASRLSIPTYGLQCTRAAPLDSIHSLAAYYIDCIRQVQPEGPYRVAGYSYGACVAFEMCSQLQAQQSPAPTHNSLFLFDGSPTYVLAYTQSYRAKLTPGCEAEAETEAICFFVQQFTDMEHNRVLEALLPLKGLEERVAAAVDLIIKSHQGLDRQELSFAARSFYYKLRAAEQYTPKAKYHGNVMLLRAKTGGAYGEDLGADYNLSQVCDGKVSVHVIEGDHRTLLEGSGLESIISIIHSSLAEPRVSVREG

Sequence of Hexokinase-1 (P19367 whole entry): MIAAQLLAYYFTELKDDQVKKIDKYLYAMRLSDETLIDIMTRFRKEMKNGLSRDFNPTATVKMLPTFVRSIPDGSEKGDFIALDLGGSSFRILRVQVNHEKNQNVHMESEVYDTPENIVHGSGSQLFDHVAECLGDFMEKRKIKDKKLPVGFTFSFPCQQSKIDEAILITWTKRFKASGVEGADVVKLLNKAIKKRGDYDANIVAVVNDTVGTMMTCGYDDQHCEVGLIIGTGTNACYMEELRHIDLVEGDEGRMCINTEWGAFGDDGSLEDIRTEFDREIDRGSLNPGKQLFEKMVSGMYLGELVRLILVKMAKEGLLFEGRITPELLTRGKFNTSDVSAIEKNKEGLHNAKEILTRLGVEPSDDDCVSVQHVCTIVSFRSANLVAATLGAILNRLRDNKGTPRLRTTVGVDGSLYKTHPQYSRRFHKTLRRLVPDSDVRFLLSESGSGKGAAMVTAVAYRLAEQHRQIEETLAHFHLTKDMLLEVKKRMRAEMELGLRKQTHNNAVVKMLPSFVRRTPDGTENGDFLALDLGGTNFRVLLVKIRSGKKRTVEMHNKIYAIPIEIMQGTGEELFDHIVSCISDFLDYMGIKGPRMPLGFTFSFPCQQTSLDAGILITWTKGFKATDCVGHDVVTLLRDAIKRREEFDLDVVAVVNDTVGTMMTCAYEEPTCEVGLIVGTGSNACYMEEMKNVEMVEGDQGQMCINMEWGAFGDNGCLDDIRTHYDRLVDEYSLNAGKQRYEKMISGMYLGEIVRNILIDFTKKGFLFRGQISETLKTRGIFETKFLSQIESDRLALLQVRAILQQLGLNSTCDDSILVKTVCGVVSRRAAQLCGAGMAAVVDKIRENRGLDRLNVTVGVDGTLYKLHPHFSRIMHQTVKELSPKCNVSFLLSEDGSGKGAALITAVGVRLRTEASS
Sequence of NS3 (A3EZJ3 whole entry, the tested form may be a part): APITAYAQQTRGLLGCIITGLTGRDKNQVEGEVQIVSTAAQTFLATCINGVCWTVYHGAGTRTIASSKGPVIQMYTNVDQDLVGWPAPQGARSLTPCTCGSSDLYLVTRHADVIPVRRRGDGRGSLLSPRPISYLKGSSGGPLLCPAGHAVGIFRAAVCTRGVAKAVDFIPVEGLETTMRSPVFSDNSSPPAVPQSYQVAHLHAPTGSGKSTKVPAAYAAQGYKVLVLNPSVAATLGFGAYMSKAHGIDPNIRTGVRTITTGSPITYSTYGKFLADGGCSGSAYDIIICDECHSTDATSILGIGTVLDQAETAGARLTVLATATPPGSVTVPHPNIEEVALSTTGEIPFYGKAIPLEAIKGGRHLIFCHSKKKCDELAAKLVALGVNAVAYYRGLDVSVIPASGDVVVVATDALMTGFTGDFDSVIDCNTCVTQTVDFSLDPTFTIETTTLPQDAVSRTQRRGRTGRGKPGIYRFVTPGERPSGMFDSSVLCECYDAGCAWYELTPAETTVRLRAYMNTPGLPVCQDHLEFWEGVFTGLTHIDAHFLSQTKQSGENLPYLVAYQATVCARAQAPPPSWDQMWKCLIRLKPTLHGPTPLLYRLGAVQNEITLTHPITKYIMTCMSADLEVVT

Compound: O=C(CNc1cccc2ccccc12)N/N=C/c1ccc([N+](=O)[O-])o1
- IC50 [1]: 15.8 µM (active)
- IC50 [2]: 11.5 µM (inactive)
- EC50 [3]: 6.2 µM (active)

- EC50 [4]: 37.9 µM (inactive)
- AC50 [5]: 30.4 µM (active)
Compound: O=C1NC(=S)N/C1=C/c1cc2c(cc1[N+](=O)[O-])OCO2

Compound: O=C(O)CSc1cc(NS(=O)(=O)c2ccc(Br)cc2)c2ccccc2c1O
- EC50 [6]: 20.7 µM (active)
- IC50 [7]: 37.2 µM (inactive)

Compound: Cc1ccc(NC(=O)C2=C(c3ccccc3)S(=O)(=O)CCS2(=O)=O)cc1
- IC50 [8]: 9.23 µM (active)
- IC50 [9]: 3.96 µM (active)
